Assay results as given in ChEMBL document CHEMBL5665443, “Enzyme Inhibitor Single Concentration assay results for EUbOPEN Chemogenomics Library” (2024).

Key:
[1] = target: Methyl-CpG-binding domain protein 4 (Homo sapiens) (UniProt O95243); conditions: Compound Concentration 10.0 uM;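 further: MBD4 activity read as fluorescence at 594 nm from cleavage and release of a quenched duplex DNA oligonucleotide, with APE1 coupled to incise the strand and raise turnover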
[2] = target: DNA-3-methyladenine glycosylase (Homo sapiens) (UniProt P29372); conditions: Compound Concentration 10.0 uM, Hit No;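 further: enzyme assay where MPG cuts a quenched duplex DNA oligonucleotide probe, paired with APE1 for strand incision and turnover, read as fluorescence at 594 nm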
Chain of DNA-3-methyladenine glycosylase (Homo sapiens) (P29372 whole entry): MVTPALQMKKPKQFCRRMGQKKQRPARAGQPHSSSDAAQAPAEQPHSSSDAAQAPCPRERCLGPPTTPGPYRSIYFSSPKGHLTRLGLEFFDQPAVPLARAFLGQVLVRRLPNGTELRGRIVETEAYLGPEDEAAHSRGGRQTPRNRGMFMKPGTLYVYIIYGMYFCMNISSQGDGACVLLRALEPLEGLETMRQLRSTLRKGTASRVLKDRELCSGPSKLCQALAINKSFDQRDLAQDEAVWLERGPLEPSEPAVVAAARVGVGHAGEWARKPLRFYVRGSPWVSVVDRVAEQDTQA

[3] = target: T1, Adenine DNA glycosylase (Homo sapiens) (UniProt Q9UIF7); conditions: Compound Concentration 10.0 uM, Hit No;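 further: human MUTYH activity read as 594 nm fluorescence from cleavage and release of a quenched DNA duplex, coupled with APE1 for strand incision, lower signal meaning inhibition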
T1 sequence (whole entry): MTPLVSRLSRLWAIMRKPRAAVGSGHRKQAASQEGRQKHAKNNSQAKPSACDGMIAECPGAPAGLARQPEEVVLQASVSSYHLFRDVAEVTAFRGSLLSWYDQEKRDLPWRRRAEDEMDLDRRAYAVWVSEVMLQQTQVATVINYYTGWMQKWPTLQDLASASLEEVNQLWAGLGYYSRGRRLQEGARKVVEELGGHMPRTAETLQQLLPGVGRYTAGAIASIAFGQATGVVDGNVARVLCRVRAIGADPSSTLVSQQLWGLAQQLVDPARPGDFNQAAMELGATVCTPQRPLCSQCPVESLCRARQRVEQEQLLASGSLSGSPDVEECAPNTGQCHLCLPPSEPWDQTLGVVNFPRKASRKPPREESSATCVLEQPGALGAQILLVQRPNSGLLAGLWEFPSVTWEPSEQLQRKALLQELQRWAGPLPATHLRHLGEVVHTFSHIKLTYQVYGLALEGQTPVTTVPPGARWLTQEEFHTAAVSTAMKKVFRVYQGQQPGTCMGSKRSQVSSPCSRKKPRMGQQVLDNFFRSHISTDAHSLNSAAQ

[4] = target: Endonuclease 8-like 1 (Homo sapiens) (UniProt Q96FI4); conditions: Compound Concentration 10.0 uM, Hit No;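 further: fluorescence at 594 nm from quenched duplex DNA oligonucleotides released by NEIL1 cleavage and strand separation, reported as reduction of this enzyme activity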
Chain of Endonuclease 8-like 1 (Homo sapiens) (Q96FI4 whole entry): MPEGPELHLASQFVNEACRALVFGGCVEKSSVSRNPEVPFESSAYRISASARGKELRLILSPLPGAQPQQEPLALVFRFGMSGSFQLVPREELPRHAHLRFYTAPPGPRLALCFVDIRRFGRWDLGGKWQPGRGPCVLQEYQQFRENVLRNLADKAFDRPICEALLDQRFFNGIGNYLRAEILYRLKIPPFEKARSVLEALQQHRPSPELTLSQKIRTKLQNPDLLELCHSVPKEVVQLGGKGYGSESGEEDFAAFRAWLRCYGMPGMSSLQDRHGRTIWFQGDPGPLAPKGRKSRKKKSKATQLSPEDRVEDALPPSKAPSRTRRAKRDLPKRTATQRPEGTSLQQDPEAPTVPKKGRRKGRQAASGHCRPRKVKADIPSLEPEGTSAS

[5] = target: T2, Endonuclease 8-like 2 (Homo sapiens) (UniProt Q969S2); conditions: Compound Concentration 10.0 uM, Hit No;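 further: fluorescence at 594 nm reports NEIL2 cutting and release of a quenched double-stranded DNA oligo substrate, reduced signal read as inhibition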
T2 sequence (whole entry): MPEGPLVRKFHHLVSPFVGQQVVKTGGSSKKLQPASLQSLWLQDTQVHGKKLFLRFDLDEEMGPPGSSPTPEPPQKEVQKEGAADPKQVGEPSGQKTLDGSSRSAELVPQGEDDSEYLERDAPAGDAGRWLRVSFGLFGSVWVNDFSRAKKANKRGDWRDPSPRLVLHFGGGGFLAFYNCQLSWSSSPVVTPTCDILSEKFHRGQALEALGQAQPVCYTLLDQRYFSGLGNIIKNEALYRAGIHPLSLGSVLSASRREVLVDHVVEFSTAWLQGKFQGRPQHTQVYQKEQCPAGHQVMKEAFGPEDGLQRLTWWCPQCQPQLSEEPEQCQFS

[6] = target: T3, Endonuclease III-like protein 1 (Homo sapiens) (UniProt P78549); conditions: Compound Concentration 10.0 uM, Hit No;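 further: enzyme assay tracking NTHL1 cutting and release of a quenched double-stranded DNA oligo substrate, read as fluorescence at 594 nm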
T3 sequence (whole entry): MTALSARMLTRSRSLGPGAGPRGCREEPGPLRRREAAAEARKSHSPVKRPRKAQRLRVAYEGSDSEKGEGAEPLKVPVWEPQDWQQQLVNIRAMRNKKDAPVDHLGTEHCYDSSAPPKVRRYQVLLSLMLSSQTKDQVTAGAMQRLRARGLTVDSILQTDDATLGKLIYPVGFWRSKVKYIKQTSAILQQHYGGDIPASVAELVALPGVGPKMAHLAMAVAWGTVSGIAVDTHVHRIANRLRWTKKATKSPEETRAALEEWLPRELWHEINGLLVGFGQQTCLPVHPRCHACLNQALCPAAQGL

[7] = target: N-glycosylase/DNA lyase (Homo sapiens) (UniProt O15527); conditions: Compound Concentration 10.0 uM, Hit No;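 further: OGG1 cleavage of a quenched duplex DNA oligonucleotide, coupled to APE1 for strand incision, read as fluorescence at 594 nm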
Chain of N-glycosylase/DNA lyase (Homo sapiens) (O15527 whole entry): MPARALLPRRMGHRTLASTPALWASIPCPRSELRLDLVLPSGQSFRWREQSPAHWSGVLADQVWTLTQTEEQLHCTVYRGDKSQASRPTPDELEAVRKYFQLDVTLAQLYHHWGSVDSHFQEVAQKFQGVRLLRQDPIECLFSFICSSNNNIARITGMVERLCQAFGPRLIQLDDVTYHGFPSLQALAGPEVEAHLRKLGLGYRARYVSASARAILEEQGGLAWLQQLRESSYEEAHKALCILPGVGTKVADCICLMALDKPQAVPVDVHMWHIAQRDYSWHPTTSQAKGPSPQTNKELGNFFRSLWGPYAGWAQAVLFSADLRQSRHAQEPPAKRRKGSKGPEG

[8] = target: T4, Single-strand selective monofunctional uracil DNA glycosylase (Homo sapiens) (UniProt Q53HV7); conditions: Compound Concentration 10.0 uM, Hit No;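 further: enzymatic SMUG1 assay coupled with APE1, reading fluorescence at 594 nm released when a quenched double-stranded DNA oligonucleotide substrate is cleaved and separated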
T4 sequence (whole entry): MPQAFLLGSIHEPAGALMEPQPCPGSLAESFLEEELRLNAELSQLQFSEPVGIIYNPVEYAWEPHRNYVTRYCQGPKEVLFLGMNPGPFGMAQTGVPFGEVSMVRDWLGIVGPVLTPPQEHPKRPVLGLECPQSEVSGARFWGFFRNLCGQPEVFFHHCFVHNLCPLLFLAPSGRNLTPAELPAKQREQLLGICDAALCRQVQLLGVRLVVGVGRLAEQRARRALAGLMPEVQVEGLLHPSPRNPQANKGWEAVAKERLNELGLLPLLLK

[9] = target: G/T mismatch-specific thymine DNA glycosylase (Homo sapiens) (UniProt Q13569); conditions: Compound Concentration 10.0 uM, Hit No;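 further: human TDG cleavage of quenched duplex DNA oligonucleotides coupled to APE1, strand release read as fluorescence at 594 nm, inhibition of TDG activity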
Chain of G/T mismatch-specific thymine DNA glycosylase (Homo sapiens) (Q13569 whole entry): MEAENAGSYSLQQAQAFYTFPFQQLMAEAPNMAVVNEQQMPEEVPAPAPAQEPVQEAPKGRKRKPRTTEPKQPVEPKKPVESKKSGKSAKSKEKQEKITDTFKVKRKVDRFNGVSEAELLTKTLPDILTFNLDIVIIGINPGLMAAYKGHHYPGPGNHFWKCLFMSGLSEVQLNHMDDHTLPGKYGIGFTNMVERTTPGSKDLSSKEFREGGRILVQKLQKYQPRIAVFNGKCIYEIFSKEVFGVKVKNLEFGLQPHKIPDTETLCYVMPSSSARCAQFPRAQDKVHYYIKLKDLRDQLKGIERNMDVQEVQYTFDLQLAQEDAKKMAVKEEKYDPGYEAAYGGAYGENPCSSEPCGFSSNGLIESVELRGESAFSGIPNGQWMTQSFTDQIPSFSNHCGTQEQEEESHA

[10] = target: Uracil-DNA glycosylase (Homo sapiens) (UniProt P13051); conditions: Compound Concentration 10.0 uM, Hit No;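 further: UNG excision on a quenched double-stranded DNA oligo probe, with APE1 added for strand incision and turnover, read as fluorescence at 594 nm as strands separate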
Chain of Uracil-DNA glycosylase (Homo sapiens) (P13051 whole entry): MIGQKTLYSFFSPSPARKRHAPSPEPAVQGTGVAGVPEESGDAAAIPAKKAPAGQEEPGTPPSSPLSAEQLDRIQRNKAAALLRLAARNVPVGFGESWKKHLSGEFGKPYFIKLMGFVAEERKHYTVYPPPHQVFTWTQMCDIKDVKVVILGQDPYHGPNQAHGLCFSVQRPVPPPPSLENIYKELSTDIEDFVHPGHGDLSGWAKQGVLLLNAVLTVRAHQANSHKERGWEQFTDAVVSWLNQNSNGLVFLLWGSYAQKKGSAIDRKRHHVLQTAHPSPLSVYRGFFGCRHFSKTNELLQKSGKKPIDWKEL

Chain of Methyl-CpG-binding domain protein 4 (Homo sapiens) (O95243 whole entry, the tested form may be a part): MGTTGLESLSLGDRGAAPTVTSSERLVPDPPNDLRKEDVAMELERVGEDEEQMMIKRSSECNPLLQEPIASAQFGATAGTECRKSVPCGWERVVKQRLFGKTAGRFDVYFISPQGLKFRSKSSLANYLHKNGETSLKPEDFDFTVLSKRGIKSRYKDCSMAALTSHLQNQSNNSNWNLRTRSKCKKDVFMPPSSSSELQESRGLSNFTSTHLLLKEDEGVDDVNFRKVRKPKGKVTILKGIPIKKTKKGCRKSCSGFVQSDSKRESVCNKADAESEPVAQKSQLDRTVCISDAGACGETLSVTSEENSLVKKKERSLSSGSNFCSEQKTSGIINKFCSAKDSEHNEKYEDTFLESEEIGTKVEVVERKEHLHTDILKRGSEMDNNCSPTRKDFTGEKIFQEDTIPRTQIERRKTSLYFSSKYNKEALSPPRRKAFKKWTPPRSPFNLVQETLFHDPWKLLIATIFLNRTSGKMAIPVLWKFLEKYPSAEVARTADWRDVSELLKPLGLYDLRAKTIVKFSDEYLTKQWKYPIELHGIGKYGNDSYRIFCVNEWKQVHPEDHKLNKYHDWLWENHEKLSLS

Row | SMILES | inhibition ([1]; Hit No) | inhibition [2] | inhibition [3] | inhibition [4] | inhibition [5] | inhibition [6] | inhibition [7] | inhibition [8] | inhibition [9] | inhibition [10] | inhibition ([1]; Hit Yes)
1 | O=C(O)c1ccc(S(=O)(=O)N(Cc2ccc(OC(F)(F)F)cc2)c2ncc(C(F)(F)F)cc2Cl)cc1 | 39.2% | 12.7% | 61.2% | 11.7% | 14.4% | 14.6% | 15.6% | 2.42% | 35% | 2.72% | 
2 | N/C(=N\C(=O)c1nc(Cl)c(N)nc1N)NCc1ccccc1 | 41.7% | 25.3% | 36.7% | 9.94% | 15.2% | 15.4% | 16.3% | 7.5% | 32.7% | 4.68% | 
3 | O=C1CC[C@@]2(O)[C@H]3Cc4ccc(O)c5c4[C@@]2(CCN3CC2CC2)[C@H]1O5 | 4.42% | 4.49% | 14.6% | -9.92% | -8.5% | -4.39% | -3.73% | -9.51% | 27.8% | -2.62% | 
4 | C[C@]1(C(=O)N(CCCC(=O)O)Cc2cccc(Cl)c2)CCN1C(=O)c1csc2ccccc12 | -2.17% | -1.32% | 11.5% | 3.5% | -3.73% | -9.8% | 3.32% | 7.04% | 25.5% | -7.61% | 
5 | COc1cc(OC)c(NC(=O)Nc2cc(C)on2)cc1Cl | -2.96% | -9.71% | -8.2% | -2.66% | 3.98% | 17.9% | -6.94% | -8.83% | -8.88% | -3.91% | 
6 | Cc1c(C2=CCN(C(=O)N(C)C(C)C)CC2)nnn1-c1cccnc1F | 0.847% | -1.32% | 17% | -0.649% | 9% | -9.8% | -1.95% | 11.5% | 17.2% | -8.86% | 
7 | CC[C@H]1[C@@H](O)[C@@H]2[C@H](CC[C@]3(C)[C@@H]([C@H](C)CCC(=O)O)CC[C@@H]23)[C@@]2(C)CC[C@@H](O)C[C@@H]12 | 77.2% | 17.5% | 24.4% | 1.53% | 1.55% | 1.34% | 26.2% | 27.8% | 67.3% | 5.49% | 
8 | Cc1cc(C)cc(C(=O)N(C)[C@H](Cc2ccc(-c3ccccc3)cc2)C(=O)N[C@@H](Cc2c[nH]c3ccccc23)C(=O)O)c1 | 60.3% | 4.38% | 76.9% | -1.83% | 12.5% | 2.66% | 16.2% | 4.62% | 48.4% | 6.08% | 
9 | O=C(NNC(=O)c1ccc(CNS(=O)(=O)c2ccc(F)c(Cl)c2)cc1)c1ccccc1 | 27% | 9.45% | 22.1% | 3.71% | -6.97% | 4.7% | 13.2% | 13.3% | 16.4% | -0.108% | 
10 | CC(CNS(=O)(=O)C(C)C)c1ccc(-c2ccc(C#N)cc2)cc1 (stereo not given) | 19.3% | 23.5% | -2.6% | 12% | 0.669% | 4.7% | -4.77% | 7.84% | 11.5% | -7.52% | 
11 | O=C(NCC12CC3CC(CC(C3)C1)C2)c1ccccc1Cl | 30.1% | 21.7% | 21.2% | 11.9% | -6.46% | 1.39% | -1.14% | -1.71% | 10.4% | -0.487% | 
12 | Oc1cc2c(cc1O)CN(C(=S)NCCc1ccc(Cl)cc1)CCC2 | 39.2% | 26.6% | 73.8% | 12.2% | 6.53% | 3.04% | -1.56% | 1.46% | 46.1% | 3.52% | 
13 | O=C(c1cc(C2CC2)on1)N(C1CCCCC1)C1CCCCC1 | 8.05% | 42.7% | 24.8% | 0.306% | -3.92% | 10.5% | 0.0968% | -5.04% | 14.9% | -1.05% | 
14 | Nc1nc2c(c(N3CCNCC3)n1)CCC1=C2[C@@H]2CCCC[C@@H]2O1 | 0.963% | -2.48% | 3.48% | -3.91% | 4.51% | 7.79% | -5.22% | 13.7% | 6.18% | -2.85% | 
15 | CCn1cnc2c(-c3ccc(F)c(-c4ccc(S(=O)(=O)CC)cc4OC)c3)cnnc21 | 19.2% | 7.34% | 16.3% | 6.83% | 12.9% | 13.8% | -5.04% | 1.23% | 22.3% | 6.05% | 
16 | CCNC(=O)NS(=O)(=O)c1sc(CC(C)C)cc1-c1ccc(Cn2c(-c3ccccc3)nc(OC)c2C=O)cc1 |  | 51.7% | 90.4% | 12.3% | 7.29% | 8.82% | 21.2% | 36.2% | 64.7% | 6.28% | 78.6%
17 | CNC1(C)C2CCC(C2)C1(C)C (stereo not given) | -0.892% | 6.27% | -4.75% | -4.14% | -4.94% | -2.73% | -5.59% | 1.51% | 10.2% | -5.36% | 
18 | NCCc1c[nH]cn1 | 10.4% | -7.46% | 10.5% | -0.352% | -0.234% | 15.1% | 0.419% | -0.0333% | 7.61% | -7.79% | 
19 | Cc1onc(-c2ccc(F)cc2)c1COc1ccc(C(=O)N2CCS(=O)(=O)CC2)cn1 | 21.2% | 18.2% | 32% | -9.77% | -7.99% | 12.9% | -9.75% | -9.34% | 0.685% | -0.327% | 
20 | COc1c(C(=O)/C=C/c2ccccc2)c(O)c(OC)c2occc12 | 19.3% | 7.88% | 19.8% | -0.435% | -3.15% | 20.4% | 0.34% | 3.49% | 11% | -2.63% | 
21 | CCCOc1ccc2[nH]cc(C3=CCNCC3)c2n1 | -0.485% | -2.25% | 0.205% | 0.306% | -8.25% | 7.17% | -9.55% | -1.82% | 11.1% | -5.52% | 
